PubChem BioAssay AID270 (DTP/NCI, 2004)
Results filed as inconclusive are left out.

Tested on: BDF1 mice, s.c. Lewis lung carcinoma, T/C %
Assay: NCI In Vivo Anticancer Drug Screen. Data for tumor model Lewis Lung Carcinoma (subcutaneous) in B6D2F1 (BDF1) mice
How it was run: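 Antitumor effect in vivo is scored from survival or tumor burden, reported as treated relative to vehicle controls.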

Compound: CCCCCCCCCCCCNCCCCCCCCCCCC
- T/C (endpoint: mean tumor weight, dose: 2.5 mg/kg/injection, schedule: Q01DX011 (ip), vehicle: other, higher = larger tumour): 78 % of control
- T/C (endpoint: mean tumor weight, dose: 5.0 mg/kg/injection, schedule: Q01DX011 (ip), vehicle: other, higher = larger tumour): 67 % of control
- T/C (endpoint: mean tumor weight, dose: 10.0 mg/kg/injection, schedule: Q01DX011 (ip), vehicle: other, higher = larger tumour): 55 % of control

Compound: Nc1nc2nc[nH]c2c(=O)[nH]1
- T/C (endpoint: mean tumor weight, dose: 6.25 mg/kg/injection, schedule: Q01DX010 (ip), vehicle: saline, higher = larger tumour): 73 % of control
- T/C (endpoint: mean tumor weight, dose: 12.5 mg/kg/injection, schedule: Q01DX010 (ip), vehicle: saline, higher = larger tumour): 71 % of control
- T/C (endpoint: mean tumor weight, dose: 25.0 mg/kg/injection, schedule: Q01DX010 (ip), vehicle: saline, higher = larger tumour): 96 % of control
- T/C (endpoint: mean tumor weight, dose: 50.0 mg/kg/injection, schedule: Q01DX010 (ip), vehicle: saline, higher = larger tumour): 71 % of control
- T/C (endpoint: mean tumor weight, dose: 50.0 mg/kg/injection, schedule: Q01DX011 (ip), vehicle: saline, higher = larger tumour): 82 % of control
- T/C (endpoint: mean tumor weight, dose: 100.0 mg/kg/injection, schedule: Q01DX011 (ip), vehicle: saline, higher = larger tumour): 80 % of control

Compound: CC(C)(C)C(=O)O
- T/C (endpoint: mean tumor weight, dose: 37.0 mg/kg/injection, schedule: Q01DX011 (ip), vehicle: other, higher = larger tumour): 75 % of control
- T/C (endpoint: mean tumor weight, dose: 83.0 mg/kg/injection, schedule: Q01DX011 (ip), vehicle: other, higher = larger tumour): 159 % of control
- T/C (endpoint: mean tumor weight, dose: 125.0 mg/kg/injection, schedule: Q01DX011 (ip), vehicle: other, higher = larger tumour): 92 % of control

Compound: COc1c(OC)c(OC)c2c(=O)cc(-c3ccc(OC(C)=O)cc3)oc2c1OC
- T/C (endpoint: mean tumor weight, dose: 50.0 mg/kg/injection, schedule: Q01DX010 (sc), vehicle: steriod suspending solution, higher = larger tumour): 97 % of control
- T/C (endpoint: mean tumor weight, dose: 100.0 mg/kg/injection, schedule: Q01DX010 (sc), vehicle: steriod suspending solution, higher = larger tumour): 74 % of control
- T/C (endpoint: mean tumor weight, dose: 200.0 mg/kg/injection, schedule: Q01DX010 (sc), vehicle: steriod suspending solution, higher = larger tumour): 76 % of control
- T/C (endpoint: mean tumor weight, dose: 400.0 mg/kg/injection, schedule: Q01DX010 (sc), vehicle: steriod suspending solution, higher = larger tumour): 77 % of control

Compound: COc1cc(NC(=O)N(CCCl)N=O)cc(OC)c1OC
- T/C (endpoint: median survival time, dose: 3.12 mg/kg/injection, schedule: Q01DX009 (ip), vehicle: other, higher = longer survival): 103 % of control
- T/C (endpoint: median survival time, dose: 6.25 mg/kg/injection, schedule: Q01DX009 (ip), vehicle: other, higher = longer survival): 102 % of control
- T/C (endpoint: median survival time, dose: 12.5 mg/kg/injection, schedule: Q01DX009 (ip), vehicle: other, higher = longer survival): 101 % of control
- T/C (endpoint: median survival time, dose: 25.0 mg/kg/injection, schedule: Q01DX009 (ip), vehicle: other, higher = longer survival): 94 % of control
- T/C (endpoint: median survival time, dose: 50.0 mg/kg/injection, schedule: Q01DX009 (ip), vehicle: other, higher = longer survival): 99 % of control

Compound: O=NN(CCCl)C(=O)Nc1ccc2c(c1)OCO2
- T/C (endpoint: median survival time, dose: 3.13 mg/kg/injection, schedule: Q01DX009 (ip), vehicle: saline with Tween-80, higher = longer survival): 98 % of control
- T/C (endpoint: median survival time, dose: 6.25 mg/kg/injection, schedule: Q01DX009 (ip), vehicle: saline with Tween-80, higher = longer survival): 116 % of control
- T/C (endpoint: median survival time, dose: 12.5 mg/kg/injection, schedule: Q01DX009 (ip), vehicle: saline with Tween-80, higher = longer survival): 102 % of control

Compound: NC(Cc1cc(I)c(Oc2ccc(O)c(I)c2)c(I)c1)C(=O)O (centres undefined)
- T/C (endpoint: mean tumor weight, dose: 25.0 micrograms/kg/injection, schedule: Q01DX011 (ip), vehicle: saline, higher = larger tumour): 93 % of control
- T/C (endpoint: mean tumor weight, dose: 100.0 micrograms/kg/injection, schedule: Q01DX011 (ip), vehicle: saline, higher = larger tumour): 115 % of control
- T/C (endpoint: mean tumor weight, dose: 200.0 micrograms/kg/injection, schedule: Q01DX011 (ip), vehicle: saline, higher = larger tumour): 118 % of control

Compound: Nc1nc(=S)c2ncn(C3CC(O)C(CO)O3)c2[nH]1 (centres undefined)
- T/C (endpoint: median survival time, dose: 4.0 mg/kg/injection, schedule: Q01DX009 (ip), vehicle: saline, higher = longer survival): 122 % of control
- T/C (endpoint: median survival time, dose: 8.0 mg/kg/injection, schedule: Q01DX009 (ip), vehicle: saline, higher = longer survival): 118 % of control
- T/C (endpoint: median survival time, dose: 16.0 mg/kg/injection, schedule: Q01DX009 (ip), vehicle: saline, higher = longer survival): 108 % of control
- T/C (endpoint: median survival time, dose: 64.0 mg/kg/injection, schedule: Q01DX009 (ip), vehicle: saline, higher = longer survival): 113 % of control

Compound: N=[N+]=CC(=O)CCC(NC(=O)C(CCC(=O)C=[N+]=N)NC(=O)CCC(N)C(=O)O)C(=O)O (centres undefined)
- T/C (endpoint: mean tumor weight, dose: 0.06 mg/kg/injection, schedule: Q01DX011 (ip), vehicle: water, higher = larger tumour): 103 % of control
- T/C (endpoint: mean tumor weight, dose: 0.12 mg/kg/injection, schedule: Q01DX011 (ip), vehicle: water, higher = larger tumour): 34 % of control
- T/C (endpoint: mean tumor weight, dose: 0.25 mg/kg/injection, schedule: Q01DX011 (ip), vehicle: water, higher = larger tumour): 17 % of control
- T/C (endpoint: median survival time, dose: 0.1 mg/kg/injection, schedule: Q01DX011 (ip), vehicle: other, higher = longer survival): 120 % of control
- T/C (endpoint: median survival time, dose: 0.2 mg/kg/injection, schedule: Q01DX011 (ip), vehicle: other, higher = longer survival): 89 % of control
- T/C (endpoint: median survival time, dose: 0.4 mg/kg/injection, schedule: Q01DX011 (ip), vehicle: other, higher = longer survival): 116 % of control
- T/C (endpoint: median survival time, dose: 0.8 mg/kg/injection, schedule: Q01DX011 (ip), vehicle: other, higher = longer survival): 107 % of control
- T/C (endpoint: median survival time, dose: 1.6 mg/kg/injection, schedule: Q01DX011 (ip), vehicle: other, higher = longer survival): 101 % of control
